We go through 16 compounds from US20230265104A1, “NOVEL HETEROCYCLIC COMPOUNDS” (PRISM BIOLAB CO., LTD., priority 2020, published 2023).

The test system of the assay is PANC-1 (human pancreatic cancer-derived cell line). In words: MTS assay on Panc-1 (human pancreas carcinoma cell line). The class given is cell-based. Particulars: 144 h; for IC50: PANC-1, MTS method, cell survival 6 days after exposure, 4-parameter logistic fit; for inhibition at 30 µM / inhibition at 0.3125 µM / inhibition at 10 µM / inhibition at 0.15625 µM: PANC-1, MTS, 6 days; for inhibition at 30 µM: read-out: Growth inhibition (%) 30 μM; for inhibition at 0.3125 µM: read-out: Growth inhibition (%) 0.3125 μM; for inhibition at 10 µM: read-out: Growth inhibition (%) 10 μM; for inhibition at 0.15625 µM: read-out: Growth inhibition (%) 0.15625 μM. How it is done: Experimental Example: MTS Assay on Panc-1 (Human Pancreas Carcinoma Cell Line) cell line name: PANC-1 derived from: human pancreas glandular cancer purchased from: ATCC product code: CRL-1469 proliferation medium: D-MEM+10% FBS culture environment: 37° C., 5% CO2 seeding density: 5.0×10^5 cells/25 cm^2 solvent control substance: DMSO (HYBRI-MAX®, Sigma-Aldrich Corp.) test substance: Example compound (ID-1-ID-13) A DMSO solution of the test substance was prepared by serially diluting (common ratio 2) each test substance with DMSO.
A solvent control substance sample and a test substance sample were exposed to a human pancreatic cancer-derived cell line (PANC-1), and the survival rate of the cell 6 days later was measured by the MTS method. The measurement was performed 3 times and the average thereof was adopted. The survival rate of the cell in each test substance sample was calculated by the following formula 1 with the value at exposure of the solvent control substance sample as 100% survival rate. […]
survival rate (%)=100×absorbance of each test substance sample/absorbance of solvent control substance sample formula 1 Normalized values calculated by the following formula 2 from the absorbances of each sample at 492 nm and 630 nm and the absorbances of the blank were used as the absorbances in the above-mentioned formula 1. […]
normalized value (ABS492 nm-630 nm)=(ABSsa 492 nm-ABSsa 630 nm)−(ABSbl 492 nm-ABSbl 630 nm) ABSsa 492: absorbance of each sample at wavelength 492 nm ABSsa 630: absorbance of each sample at wavelength 630 nm ABSbl 492: absorbance of blank corresponding to each sample at wavelength 492 nm ABSbl 630: absorbance of blank corresponding to each sample at wavelength 630 nm formula 2 […]
The analysis was performed by using nplr package on R (The R Foundation for Statistical Computing) and estimating the logistic regression curve (4-parameter).
Background: Tetrazolium assays rely on reduction of a dye to a coloured formazan, in cell work by metabolically active cells.

Turning to `CONC(=O)CCN1C[C@@H]2N(C(=O)/C=C/c3ccccn3)O[C@H](CC(C)C)C(=O)N2[C@@H](CC(C)C)C1=O` [ID-28, 3-((3R,6S,9aS)-3,6-diisobutyl-4,7-dioxo-1-((E)-3-(pyridin-2-yl)acryloyl)hexahydropyrazino[2,1-c][1,2,4]oxadiazin-8(1H)-yl)—N-methoxypropanamide], inhibition was half-maximal at 16.2 µM (IC50) and the inhibition at 30 µM came to 96.2%.

With `CC(C)C[C@H]1ON(C(=O)/C=C/c2nc3ccccc3s2)[C@H]2CN(C3CCN(CCC(CO)CO)CC3)C(=O)[C@H](CC(C)(C)C)N2C1=O` [ID-83, (3R,6S,9aS)-1-((E)-3-(benzo[d]thiazol-2-yl)acryloyl)-8-(1-(4-hydroxy-3-(hydroxymethyl)butyl)piperidin-4-yl)-3-isobutyl-6-neopentyltetrahydropyrazino[2,1-c][1,2,4]oxadiazine-4,7(3H,6H)-dione], the inhibition at 0.3125 µM was 46.5%.

With `CC(C)C[C@H]1ON(C(=O)/C=C/[C@@H]2CCCN2C)[C@H]2CN(CCC(N)=O)C(=O)[C@H](CC(C)C)N2C1=O` [ID-42, 3-((3R,6S,9aS)-3,6-diisobutyl-1-((E)-3-((S)-1-methylpyrrolidin-2-yl)acryloyl)-4,7-dioxohexahydropyrazino[2,1-c][1,2,4]oxadiazin-8(1H)-yl)propanamide], the inhibition at 10 µM came to 65.3%.

`CC(C)C[C@H]1ON(C(=O)/C=C/c2nc3cc(O)ccc3s2)[C@H]2CN(C3CCN(C(C)C)CC3)C(=O)[C@H](CC(C)(C)C)N2C1=O` [ID-98, (3R,6S,9aS)-1-((E)-3-(5-hydroxybenzo[d]thiazol-2-yl)acryloyl)-3-isobutyl-8-(1-isopropylpiperidin-4-yl)-6-neopentyltetrahydropyrazino[2,1-c][1,2,4]oxadiazine-4,7(3H,6H)-dione]: the inhibition at 0.15625 µM came to 61.7%.

As for `CC(C)C[C@H]1ON(C(=O)/C=C/c2nc(C#CCCCO)cs2)[C@H]2CN(C3CCN(C4CC4)CC3)C(=O)[C@H](CC(C)(C)C)N2C1=O` [ID-102, (3R,6S,9aS)-8-(1-cyclopropylpiperidin-4-yl)-1-((E)-3-(4-(5-hydroxypent-1-yn-1-yl)thiazol-2-yl)acryloyl)-3-isobutyl-6-neopentyltetrahydropyrazino[2,1-c][1,2,4]oxadiazine-4,7(3H,6H)-dione], the inhibition at 0.15625 µM worked out at 36.9%.

For `CC(C)C[C@H]1ON(C(=O)/C=C\c2ccccc2)[C@H]2CN(C3CCN(C)CC3)C(=O)[C@H](CC(C)C)N2C1=O` [ID-38, (3R,6S,9aS)-3,6-diisobutyl-8-(1-methylpiperidin-4-yl)-1-((Z)-3-phenylacryloyl)tetrahydropyrazino[2,1-c] [1,2,4] oxadiazine-4,7 (3H, 6H)-dione], 8 µM corresponded to half-maximal inhibition (IC50) and the inhibition at 10 µM worked out at 82.6%.

Compound `CC(C)C[C@H]1ON(C(=O)/C=C/c2ccccn2)[C@H]2CN(CCC(N)=O)C(=O)[C@H](CC(C)C)N2C1=O` [ID-14, 3-((3R,6S,9aS)-3,6-diisobutyl-4,7-dioxo-1-((E)-3-(pyridin-2-yl)acryloyl)hexahydropyrazino[2,1-c][1,2,4]oxadiazin-8 (1H)-yl)propanamide] gave a half-maximal inhibitory concentration (IC50) of 17.8 µM. This counts as double-digit micromolar.

As to `CC(C)C[C@H]1ON(C(=O)/C=C/c2nc(C#CCCCCO)cs2)[C@H]2CN(C3CN(CCCCO)C3)C(=O)[C@H](CC(C)(C)C)N2C1=O` [ID-92, (3R,6S,9aS)-8-(1-(4-hydroxybutyl)azetidin-3-yl)-1-((E)-3-(4-(6-hydroxyhex-1-yn-1-yl)thiazol-2-yl)acryloyl)-3-isobutyl-6-neopentyltetrahydropyrazino[2,1-c][1,2,4]oxadiazine-4,7(3H,6H)-dione], it took 0.12 µM to reach half-maximal inhibition (IC50).

Turning to `CNCCCN1C[C@H](CC(C)C)N2C(=O)[C@@H](CC(C)C)ON(C(=O)/C=C/c3ccccn3)[C@H]2C1` [ID-19, (3R,6S,9aS)-3,6-diisobutyl-8-(3-(methylamino)propyl)-1-((E)-3-(pyridin-2-yl)acryloyl)hexahydropyrazino[2,1-c][1,2,4]oxadiazin-4(3H)-one], the midpoint of inhibition, the IC50, lay at 10.2 µM and the inhibition at 30 µM was 99.7%.

In the case of `CC(C)C[C@@H]1ON(C(=O)/C=C/c2nc3ccccc3s2)[C@@H]2CN([C@@H]3CCN(CCCCO)C3)C(=O)[C@H](CC(C)(C)C)N2C1=O` [ID-95, (3S,6S,9aR)-1-((E)-3-(benzo[d]thiazol-2-yl)acryloyl)-8-((R)-1-(4-hydroxybutyl)pyrrolidin-3-yl)-3-isobutyl-6-neopentyltetrahydropyrazino[2,1-c][1,2,4]oxadiazine-4,7(3H,6H)-dione], the IC50 was found to be 1.4 µM.

For the compound `C#Cc1csc(/C=C/C(=O)N2O[C@H](CC(C)C)C(=O)N3[C@@H]2CN([C@H]2CCN(CCCCO)C2)C(=O)[C@@H]3CC(C)(C)C)n1` [ID-81, (3R,6S,9aS)-1-((E)-3-(4-ethynylthiazol-2-yl)acryloyl)-8-((S)-1-(4-hydroxybutyl)pyrrolidin-3-yl)-3-isobutyl-6-neopentyltetrahydropyrazino[2,1-c][1,2,4]oxadiazine-4,7(3H,6H)-dione], the inhibition at 0.3125 µM is 69.6%.

Regarding `CC(C)C[C@H]1ON(C(=O)/C=C/c2nc3ccccc3o2)[C@H]2CN(C3CCN(C)CC3)C(=O)[C@H](CC(C)C)N2C1=O` [ID-46, (3R, 6S, 9aS)-1-((E)-3-(benzo[d]oxazol-2-yl)acryloyl)-3,6-diisobutyl-8-(1-methylpiperidin-4-yl)tetrahydropyrazino[2,1-c][1,2,4]oxadiazine-4,7(3H,6H)-dione], half-maximal inhibition (IC50) required 1.4 µM and the inhibition at 10 µM was determined as 99.1%.

Consider `CC(C)C[C@H]1ON(C(=O)/C=C/c2nc3ccccc3s2)[C@H]2CN([C@@H]3CCN(CCCCO)C3)C(=O)[C@H](CC(C)(C)C)N2C1=O` [ID-6, (3R,6S,9aS)-1-((E)-3-(benzo[d]thiazol-2-yl)acryloyl)-8-((R)-1-(4-hydroxybutyl)pyrrolidin-3-yl)-3-isobutyl-6-neopentyltetrahydropyrazino[2,1-c][1,2,4]oxadiazine-4,7(3H,6H)-dione], for which the IC50 was 0.13 µM.

As for `CC(C)C[C@H]1ON(C(=O)/C=C/c2nc3c(s2)CCCC3)[C@H]2CN(CCC(N)=O)C(=O)[C@H](CC(C)C)N2C1=O` [ID-37, 3-((3R,6S,9aS)-3,6-diisobutyl-4,7-dioxo-1-((E)-3-(4,5,6,7-tetrahydrobenzo[d]thiazol-2-yl)acryloyl)hexahydropyrazino[2,1-c][1,2,4]oxadiazin-8 (1H)-yl)propanamide], the IC50 was 4.7 µM and the inhibition at 10 µM amounted to 95.8%.

Turning to `C#Cc1cnc(/C=C/C(=O)N2O[C@H](CC(C)C)C(=O)N3[C@@H]2CN([C@H]2CCN(CCCCO)C2)C(=O)[C@@H]3CC(C)(C)C)s1` [ID-89, (3R,6S,9aS)-1-((E)-3-(5-ethynylthiazol-2-yl)acryloyl)-8-((S)-1-(4-hydroxybutyl)pyrrolidin-3-yl)-3-isobutyl-6-neopentyltetrahydropyrazino[2,1-c][1,2,4]oxadiazine-4,7(3H,6H)-dione], the midpoint of inhibition, the IC50, lay at 0.18 µM and the inhibition at 0.3125 µM was 100%.

As to `CC(C)C[C@H]1ON(C(=O)/C=C/c2nc(C#CCN(C)C)cs2)[C@H]2CN([C@H]3CCN(CCCCO)C3)C(=O)[C@H](CC(C)(C)C)N2C1=O` [ID-88, (3R,6S,9aS)-1-((E)-3-(4-(3-(dimethylamino)prop-1-yn-1-yl)thiazol-2-yl)acryloyl)-8-((S)-1-(4-hydroxybutyl)pyrrolidin-3-yl)-3-isobutyl-6-neopentyltetrahydropyrazino[2,1-c][1,2,4]oxadiazine-4,7(3H,6H)-dione], the inhibition at 0.3125 µM worked out at 38%.

The term IC50 denotes the midpoint of a concentration-inhibition curve. Lower therefore signals greater potency in that assay. In general, inhibition refers to the change of the read-out against control, counted positive when it falls.
